Test results: article PMC10093212, “Development of Cyclic Peptides Targeting the Epidermal Growth Factor Receptor in Mesenchymal Triple-Negative Breast Cancer Subtype” (Cells, 2023)
Bridge positions count the residues as written; N and C are the ends. Ends that are not written are not given here.

What was measured:
[1] = system: MDA-MB-231 xenograft tissue; test: Confocal immunofluorescence of tumor xenograft tissue sections with FITC-peptides; design: species or system human; settings: MDA-MB-231 xenograft tissue sections, FITC-peptide 10 μg/mL, 45 min, 37 °C; confocal microscopy
Protocol: (§1) OCT-embedded MDA-MB-231 xenograft tissue samples derived from Balb/c nude mice were cut in 8–10 µm sections and mounted onto microscope slides for confocal microscopy analysis. Sections were fixed with 4% paraformaldehyde for 30 min at 4 °C, and then for 45 min, incubated at 4 °C with rabbit polyclonal anti-EGFR (1:100 dilution -Bethyl Laboratories, Inc., Montgomery, TX, USA) followed by Alexa Fluor 568-labeled anti-rabbit secondary antibody (1:500 dilution; Thermo Fisher Scientific). After washing, cells were incubated in the dark with FITC-conjugated peptides (Control, 01_cysEGFR, 06_cysEGFR) (10 μg/mL) for 45 min at 37 °C, anti-Wheat Germ Agglutinin (WGA) Alexa Fluor 647 conjugate (1:200 dilution; Thermo Fisher Scientific) for 45 min, and finally with DAPI at the dilution 1:500 for 10 min. Cells were prepared with mounting medium (ProLong antifade, Thermo Fisher Scientific) and visualized by confocal microscopy (LEICA TCS SP8).
Then, we asked whether the 01_cysEGFR and 06_cysEGFR peptides could be used for in vivo analysis of tumor tissues expressing EGFR. To this end, we generated MDA-MB-231 tumor xenograft in mice and performed confocal microscopy analysis of tumor tissue sections upon immunofluorescence staining with FITC-peptides (green signal) or anti-EGFR (red signal) (Figure 6). […]

[2] = system: thyroid cancer cell lines (Cal62 and K1); test: Flow cytometry binding of FITC-peptides to EGFR-positive thyroid cancer cells; assay type: cell-based, human; settings: Cal62 and K1, especially K1; 10uM FITC-peptide, 45 min; compared with 06cys_EGFR
Protocol: (§2) We analyzed the binding of FITC-conjugated phages on MDA-MB231 cells by flow cytometry. A binding assay was also performed with FITC-conjugated peptides to human MDA-MB-231 and BT-549 cells, murine 4T1 cells, and additional EGFR-positive thyroid cancer cell lines K1 and Cal62. To increase the stringency conditions of in vitro binding, adherent cells were incubated with 10 μg/mL of 01cys_EGFR and 06_cys EGFR for 45 min in the dark at 37 °C instead of 4 °C of the standard protocol. Cells were recovered by a cell scraper, then twice washed with PBS and suspended in 300 μL of BD™ FACSFlow™ fluid. Data were acquired on the BD FACSCanto™ II and analyzed with FlowJo software (Becton Dickinson, San Jose, CA, USA).
In order to evaluate the binding efficacy of our peptides in other EGFR-overexpressing cancer cell types, we choose two different thyroid cancer cell lines (Cal62 and K1).
Figure S3. Pe p t i d e binding assay in EGFR-positive thyroid cancer cells using ﬂow cytometry. Flow cytometric analysis showing EGFR-overexpressing thyroid cancer cell lines K1 and Cal62 unstained or stained with 10uM of FITC- conjugate peptides (control, 01_cysEGFR and 06cys_EGFR) for 45 […]

BT549 cells = test: Cell cycle analysis by propidium iodide flow cytometry; assay type: cell-based, human; settings: 24 h; for mitogenic activity through the binding to the EGFR: 25 μM, BT549; for cells in G1 phase / cells in G2 phase / cells in S phase: free peptide 25 μM, after 18 h serum starvation, 0.2% FBS, PI staining, two experiments
Protocol: BT549 cells (200,000 cells/well) were seeded onto a 6-well plate in RPMI-1640 complete medium. After adhesion, cells were starved in serum-free RPMI-1640 for 18 h, and then the medium was changed to RPMI-1640 supplemented with 0.2% FBS in the presence or absence of control, 01cys_EGFR and 06_cys EGFR peptides (25 μM). After 24 h of peptide stimulation, cells were trypsinized, washed, and suspended in PBS. Cells were fixed with 1 mL of ice-cold 70% ethanol and incubated for 30 min at 4 °C. Fixed cells were washed three times and stained with 50 μg/mL of propidium iodide and 40 μg/mL of RNAse A. Cell cycle profile was acquired by FACS Canto II and analyzed by Flow Jo software 8.8.6 (Becton Dickinson).
Next, we tested whether the peptides 01cys_EGFR and 06cys_EGFR could affect the cell cycle through the binding to EGFR. To this end, BT549 cells were serum starved for 18h to induce synchronization and then treated with 01cys_EGFR, 06cys_EGFR, and the irrelevant control peptides (25 μM) or left untreated for 24 h. Proliferating cells were stained with propidium iodide to analyze cell cycle distribution by flow cytometry (Figure 7A). The cells treated with 01cys_EGFR, 06cys_EGFR, and control peptides were distributed ~26% in G1, ~64% in S, and ~10% in the G2 phase, which was a similar behavior to unstimulated cells (Figure 7B).
Figure 7 (A) The proportion of BT549 cells untreated or treated with 25 μM of control, 01cys_EGFR, and 06cys_EGFR peptides in G1, S, and G2 phases were determined by flow cytometry and quantified by Flow Jo software using Watson Pragmatic method. […] Data are collected from two different experiments and presented as means ± SD. Paired t-test indicates no statistical significance between peptide-stimulated and unstimulated cells.

[3] = system: wild-type MDA-MB-231 cells; test: Flow cytometry binding of FITC-conjugated phages; assay type: cell-based, human; settings: phage displaying the peptide; compared to 04cys_EGFR and 30cys_EGFR phages
Text: Phages expressing peptide sequences (01cys_EGFR, 04cys_EGFR, 06cys_EGFR, and 30cys_EGFR) and a wild-type M13 phage were conjugated to fluorescein isothiocyanate (FITC) in order to analyze their binding affinity to EGFR on MDA-MB-231 by flow cytometry. The “Pierce FITC Antibody Labeling Kit” (cat #53027—Thermo Fisher Scientific) was used for the conjugation following the manufacturer’s instructions.
as §2
The binding ability of phages 01cys_EGFR, 04cys_EGFR, 06cys_EGFR, and 30cys_EGFR to the MDA-MB-231 cells were analyzed by flow cytometry. To this end, the phages were conjugated with fluorescein isothiocyanate (FITC) and incubated with wild-type MDA-MB-231 or MDA-MB-231 EGFR- KO cells. […]

[4] = system: MDA-MB-231 EGFR KO xenograft; test: Confocal immunofluorescence of tumor xenograft tissue sections with FITC-peptides; design: species or system human; settings: MDA-MB-231 EGFR KO xenograft sections, FITC-peptide 10 μg/mL, 45 min, 37 °C; confocal microscopy
Protocol: as §1
EGFR was detected in the MDA-MB-231 xenograft tissue sections by an anti-EGFR antibody as a red fluorescence signal, while it was undetected in MDA-MB-231 EGFR KO (Figure 6).

MDA-MB-231 cells = settings: cited from earlier work
Text: (§3) TNBC is the most aggressive form of breast cancer. There are different TNBC subtypes characterized by intratumor heterogeneity based on morphology, gene expression profile, and response to adjuvant chemotherapies. Unfortunately, TNBC is still lacking effective anticancer targets for clinical treatment. This justifies the urgency to explore new biomarkers and therapeutic strategies for improving the survival outcomes of TNBC patients. EGFR is a tyrosine kinase membrane receptor that contains in the extracellular region the docking site for the epidermal growth factor a ...

[5] = cited from earlier work
Text: as §3

MDA-MB-468 cells = settings: cited from earlier work
Text: as §3

Sequence | green fluorescence signal (FITC-peptide staining) [1] | efficacy of binding to thyroid cancer cells [2] | mitogenic activity through the binding to the EGFR (BT549 cells) | cells in G1 phase (BT549 cells) | cells in G2 phase (BT549 cells) | cells in S phase (BT549 cells) | binding of FITC-conjugated phage (percentage of fluorescence) [3] | green fluorescence signal (FITC-peptide staining) [4] | uptake (MDA-MB-231 cells) | serum stability [5] | uptake (MDA-MB-468 cells)
CEKMVATHC (disulfide 1-9 (inferred)) [01cys_EGFR, Phage-display selected cyclic EGFR peptide ligand, one disulphide bond, amidated C-terminus] | stronger green fluorescence signal | higher efficacy of binding | lacked mitogenic activity | ~ 26% | ~ 10% | ~ 64% | higher efficiency | lack of fluorescence | – | – | –
CGGNGPGLC (disulfide 1-9 (inferred)) [irrelevant peptide, Irrelevant peptide synthesized as a negative control, reference compound] | lack of green fluorescence signal | – | – | ~ 26% | ~ 10% | ~ 64% | – | – | – | – | –
CPSDEHHTC (disulfide 1-9 (inferred)) [06cys_EGFR, Phage-display selected cyclic EGFR peptide ligand, one disulphide bond, amidated C-terminus] | – | – | lacked mitogenic activity | ~ 26% | ~ 10% | ~ 64% | higher efficiency | – | – | – | –
YHWYGYTPENVI [peptide 22] | – | – | – | – | – | – | – | – | highest uptake | low serum stability | highest uptake
